From patent US20070299040A1, “Composition for Preventing a Cold” (BIOTECH INSTITUTE FOR INTERNATIONAL INNOVATION, INC., priority 2004, published 2007)
Where “and” joins values, the source holds several entries; their conditions need not be identical. Identical values can stand only once.

Columns and labels:
Type in all cases: in vivo, human
INF-γ = assay: Cytokine in serum by ELISA (Experimental Example 4); settings: samples from persons after 40 months of intake; 10 samples
Description: (§1) After such cultivating, the plates were washed, biotynilated secondary antibody was filled in each plate by […], and streptavidin ALP was added thereto, which was cultivated at 37° C. for 30 minutes. After washing the plates again, alkaline phosphatase PNPP was added thereto, and the plates were cultivated for 30 minutes and measured with ELISA reader at 405 nm.

IL-12 = assay: as above; settings: samples from persons after 40 months of intake; 10 samples
Description: as §1

IL-2 = assay: as above; settings: samples from persons after 40 months of intake; 10 samples
Description: as §1

IL-4 = assay: as above; settings: samples from persons after 40 months of intake; 10 samples
Description: as §1

IL-10 = assay: as above; settings: samples from persons after 40 months of intake
Description: as §1

cold = assay: Analysis of cold cases, composition of Example 8 vs vitamin C and placebo (Experimental Example 3)
From the text: The present experiment example analyzed cold cases in the experiment group who took the composition of Example 8, and the control groups I and II who took vitamin C and placebo (wheat flour) respectively, throughout 40 months from 1999 to 2003. The intake is the same as 1 g after meal. Here, ‘cold’ is defined to show high fever or slight fever, sore throat, dry cough, headache, myalgia, and chill.
As a result of the above experiment, the average of cold case a year per person in the experiment group who took the present composition, the control group I who took vitamin C, and the control group II who took placebo was 0, 1.5, and 5.6, respectively, all of which are statistically significant difference under 0.05% of significance probability. In sum, the composition of the present invention accomplished 100% of cold prevention effect.

SMILES: O=C1O[C@H]([C@@H](O)CO)C(O)=C1O [Vitamin C, ascorbic acid]
- Cytokine in serum INF-γ (INF-γ): 68 ± 12 pg/mL
- Cytokine in serum IL-12 (IL-12): 20 ± 7 pg/mL
- Cytokine in serum IL-2 (IL-2): 51 ± 19 pg/mL
- Cytokine in serum IL-4 (IL-4): 0.14 ± 0.03 pg/mL
- Cytokine in serum IL-10 (IL-10): 10 ± 8 pg/mL
- average of cold case a year per person (cold; 40 months, 1 g after meal): 1.5
- cold prevention effect (in words) (cold; group administrating vitamin C only): some cold prevention effect
- Frequency of cold in the control group taking vitamin C (cold; per person (one line per subject), 1 g after meal, 40 months 1999-2003): 4 (7×) and 5 (5×) and 7 and 6 (2×)
